Measured values taken from US11304431B2, “Sweetener and flavor compositions, methods of making and methods of use thereof” (EPC Natural Products Co., Ltd., priority 2018, dated 2022).
Residues, ends and D or L forms follow the SMILES beside them.

How the values were obtained:
[1] = DPPH radical-scavenging activity (Example 65); conditions: Reb-A 10 mM with or without amino acid, 100° C., 0-5 hours, diluted 1:10; FIG. 49 and 50
Experimental: 1 mg 1,1-Diphenyl-2-picrylhydrazyl radical (DPPH)/ml ethanol, dilution to assay concentration were prepared in ethanol (40 μg/mL); Calibration samples were prepared with Ascorbic acid in a concentration of 0-10 μg/mL; as a negative control sample, water was used.
Samples in aqueous solution were used as such or diluted with water.
A 0.1 ml sample (or calibration standard) was mixed with 3.9 ml solution of DPPH (100 μMolar) and reacted while protected from light at room temperature for 30 min. Absorbance was determined at 517 nm against ethanol.
10 mM of amino acid and/or 10 mM sugar were dissolved in 10 ml 0.1 mM KH2PO4-buffer, pH=7.8.
The samples were kept at 100° C. in sealed glass vials (Pyrex 15 ml with screw caps) for 0 (before reaction), 2.5 or 5.0 hours. Thereafter the samples were transferred to an ice water bath and cooled down to room temperature. These samples were diluted 1:10 and used for the test assay for anti-oxidant potential.

[2] = HPLC/DAD/MS of Maillard reaction intermediates (MRI, Amadori products), unreacted partners and degradation kinetics at various pH; conditions: 120 °C; for % formation from degraded Phe: n.d. = not detected
Experimental: For HPLC analysis the reacted samples were injected after filtration (2 μm syringe filters).
Mobile Phase A consisted of a 0.1% formic acid in water. Mobile Phase B consisted of 0.1% formic acid in acetonitrile. […] Injection volume was set to 20 μl.
The mobile phase consisted of (A) 0.1% HCOOH (v/v) and (B) AcCN. A gradient of 5% (B) to 15% (B) was applied between 0 min to 15 min. Between 15 and 20 min (B) was increased to 45% which was kept for 5 min. Detection consisted of UV/VIS-DAD (205 nm, 254 nm, 450 nm) coupled to ESI-MS (pos mode, 300° C., TIC from m/z 120-1200, fragmentor 100).
Quantitative evaluation was performed using external standardization.

[3] = sweetness depends on the tested concentration compared with sucrose; cited from earlier work
[4] = reaction of Phe and Suc, pH = 5.5, 1.0 h

Row | Structure (SMILES) | times sweeter than sucrose (sugar, cane sugar) [3] | further results
1 | C=C1C[C@@]23CC[C@H]4[C@@](C)(CCC[C@@]4(C)C(=O)O[C@@H]4O[C@H](CO)[C@@H](O)[C@H](O)[C@H]4O)[C@@H]2CC[C@]1(O[C@@H]1O[C@H](CO)[C@@H](O)[C@H](O[C@@H]2O[C@H](CO)[C@@H](O)[C@H](O)[C@H]2O)[C@H]1O[C@@H]1O[C@H](CO)[C@@H](O)[C@H](O)[C@H]1O)C3 [Reb-A, Rebaudioside A] |  | anti-oxidant properties [1]: substantial anti-oxidant properties
2 | O=C(O)[C@H](Cc1ccccc1)NCC(=O)[C@@H](O)[C@H](O)[C@H](O)CO [MRI (Phe-Glu)] |  | % formation from degraded Phe [2, 4]: <0.10%; % formation from degraded Phe ([2]; reaction of Phe and Suc, pH = 7.0, 1.0 h): 0.54%; % formation from degraded Phe ([2]; reaction of Phe and Suc, pH = 8.5, 1.0 h): 0.84%
3 | C[C@H](CC[C@@H](O[C@@H]1O[C@H](CO[C@@H]2O[C@H](CO)[C@@H](O)[C@H](O)[C@H]2O)[C@@H](O)[C@H](O)[C@H]1O[C@@H]1O[C@H](CO)[C@@H](O)[C@H](O)[C@H]1O)C(C)(C)O)[C@H]1CC[C@@]2(C)[C@@H]3CC=C4[C@@H](CC[C@H](O[C@@H]5O[C@H](CO[C@@H]6O[C@H](CO)[C@@H](O)[C@H](O)[C@H]6O)[C@@H](O)[C@H](O)[C@H]5O)C4(C)C)[C@]3(C)[C@H](O)C[C@]12C [mogroside V] | 256-344 times | 
4 | O=S(=O)([O-])NC1CCCCC1.[Na+] [sodium cyclamate] | about 30 times | 
5 | C=C1C[C@@]23CC[C@H]4[C@@](C)(CCC[C@@]4(C)C(=O)O[C@@H]4O[C@H](CO)[C@@H](O)[C@H](O)[C@H]4O)[C@@H]2CC[C@]1(O[C@@H]1O[C@H](CO)[C@@H](O)[C@H](O)[C@H]1O)C3 [Rubusoside] | 200 times | 
6 | N[C@H](Cc1ccccc1)C(=O)O [Phe] |  | % degradation [2, 4]: 5.50%; % degradation ([2]; reaction of Phe and Xyl, pH = 7.0, 1.0 h): 4.80%
7 | C[C@H](CC[C@@H](O[C@@H]1O[C@H](CO)[C@@H](O)[C@H](O)[C@H]1O[C@@H]1O[C@H](CO)[C@@H](O)[C@H](O)[C@H]1O)C(C)(C)O)[C@H]1CC[C@@]2(C)[C@H]3CC=C4[C@@H](CC[C@H](O[C@@H]5O[C@H](CO[C@@H]6O[C@H](CO)[C@@H](O)[C@H](O)[C@H]6O)[C@@H](O)[C@H](O)[C@H]5O)C4(C)C)[C@]3(C)[C@H](O)C[C@]12C [mogroside IV] | 126 times | 
8 | COC(=O)[C@H](Cc1ccccc1)NC(=O)[C@@H](N)CC(=O)O [Aspartame] (H-Asp-Phe-OMe) | 160-200 times | 
9 | OC[C@H]1O[C@H](O[C@]2(CCl)O[C@H](CCl)[C@@H](O)[C@@H]2O)[C@H](O)[C@@H](O)[C@H]1Cl [sucralose] | about 600 times | 
10 | OC[C@@H](O)[C@@H](O)[C@H](O)[C@H](O)CO [Mannitol] | 0.55-0.65 times | 
